From patent publication US5840893A, “Compounds for treating infectious diseases” (priority 1996, dated 1998) come the findings set out here.

“Also recorded” adds a separate entry of the source.

In experiment [1] the test system is HIV-1. In words: AZT and Compound No. 2 in combination on HIV-1 infected monocyte cultures (RT activity). In kind it is cell-based, HIV-1 in human monocyte cultures. The note with it: for RT activity: 100 nM Compound No. 2, AZT 0. As to the method: Primary human monocytes were obtained from peripheral blood by Ficoll-Hypaque centrifugation and adherence to plastic as described previously. Gartner S. P., et al., 1986, Science 233:215. Briefly, after Ficoll-Hypaque (Pharmacia) separation, PBMCs were washed 4 times with DMEM (the last wash was done at 800 rpm to remove platelets) and resuspended in monocyte culture medium [DMEM supplemented with 1 mM glutamine, 10% heat-inactivated human serum, 1% penicillin+streptomycin mixture (Sigma)] at a density of 6×10^6 cells/ml. Cells were seeded in 24-well plates (1 ml per well) and incubated for 2 h at 37° C., 5% CO2. Following incubation, cells were washed 3 times with DMEM to remove non-adherent cells and incubation was continued in monocyte culture medium supplemented with 250 U/ml human M-CSF (Sigma). Cells were allowed to mature for 7 days prior to infection with the monocyte-tropic strain, HIV-1ADA. Nuovo, G. J., et al., 1992, Diagn. Mol. Pathol. 1:98. Two hours after infection, cells were washed with medium and cultured in RPMI supplemented with 10% human serum. In experiments where PCR analysis was performed, virus was pretreated with RNAse-free DNAse (Boehinger-Mannheim)for 2 h at room temperature and then filtered though a 0.2 μm pore nitrocellulose filter prior to infection.
(§1) For the reverse transcriptase (RT) assay, 10 μl of culture supernatant was added to 40 μl of reaction mixture (final composition was 50 mM Tris-HCl, pH 7.8; 20 mM KCl; 5 mM MgCl2; 1 mM DTT; 0.1% Triton X-100; 0.2 OD/ml polyA; 0.2 OD/ml oligo(dT)12-18; and 40 μCi/ml ^3 H-dTTP (76 Ci/mmol, DuPont) and incubated 2 hr at 37° C. 5 μl of the reaction mixture was then spotted onto the DE 81 (Whatman) paper. Paper was air dried and washed 5 times with 5% Na2 HPO4, followed by rinsing with distilled water. After air drying, paper was put on a Flexi Filter plate (Packard), covered with scintillation fluid and counted in a Top Count Microplate Counter (Packard). Results are expressed as counts per minute in 1 ml of supernatant (cpm/ml).
In view of these premises, the effects on HIV-1 replication in human monocyte cultures of the various concentrations of AZT, alone or in combination with 100 nM Compound No. 2, were tested using the protocols of Sections 6.2.1 and 6.2.2. Drugs were added to the monocyte cultures together with HIV-1 at about 10^5 TCID/ml. The concentration of drugs was maintained on refeeding. HIV-1 replication was assessed by assay of the supernatant for reverse transcriptase activity. The results are expressed as mean±std. dev. (cpmx10^-3) in Table V.

Experiment [2] deals with T1, reverse transcriptase (HIV-1 M:B_HXB2R, UniProt P04585).
T1 construct: infection experiments used HIV-1 ADA virus supernatant
The experiment is described as follows: Inhibition of reverse transcriptase. Format: biochemical. The following applies: data not shown.

Experiment [3] relates to HIV-1ADA. The experiment is described as follows: RT activity in supernatant of HIV-1ADA-infected mitogen-stimulated peripheral blood leukocytes. In kind it is cell-based, HIV-1ADA in human PBMC. Here is the method:
PBMCs were purified by Ficoll-Hypaque centrifugation and activated by 10 μg/ml PHA-P (Sigma) and 20 U/ml recombinant human IL-2 (rhIL-2) in RPMI 1640 supplemented with 10% FBS (HyClone). After 24 h incubation, cells were washed and inoculated with HIV-1ADA in RPMI 1640 supplemented with 10% FBS. After a 2 h adsorption, free virus was washed away and cells were cultured in RPMI 1640 supplemented with 10% FBS and 20 U/ml rhIL-2.
as §1

Experiment [4] deals with nuclear importation of HIV-1 preintegration complexes. The experiment is described as follows: Nuclear importation of HIV-1 preintegration complexes (2-LTR circle PCR) in primary human monocytes. In kind it is cell-based, HIV-1ADA in primary human monocytes. The note with it: Monocyte, 100 nM, 48 and 96 hours post infection. The text has this:
The effects of Compound No. 2 on the nuclear importation of HIV-1 preintegration complexes can be directly measured by detecting the presence of circularized duplex HIV-1 genomic DNA. These duplex circles can be readily detected by PCR amplification using primers which span the junction of the circularized HIV-1 genome. Bukrinsky, M. I., et al., 1992, Proc.Natl.Acad.Sci. 89:6580-84.
Briefly, the efficiency of nuclear translocation was estimated by the ratio between the 2-LTR- and pol-specific PCR products, which reflects the portion of 2-LTR circle DNA molecules as a fraction of the entire pool of intracellular HIV-1 DNA. Viral 2-LTR circle DNA is formed exclusively within the nucleus of infected cells and thus is a convenient marker of successful nuclear translocation. […]
Total DNA was extracted from HIV-1-infected cells using the IsoQuick extraction kit (Microprobe Corp., Garden Grove, Calif.). DNA was then analyzed by PCR using primer pairs that amplify the following sequences: a fragment of HIV-1 (LTR/gag) that is the last one to be synthesized during reverse transcription and therefore represents the pool of full-length viral DNA molecules; a fragment of polymerase gene (pol); a 2-LTR junction region found only in HIV-1 2-LTR circle DNA molecules; or a fragment of the cellular a-tubulin gene. […]

`CC(=O)c1cc(Nc2cc(C)[n+](C)c(N)n2)cc(C(C)=O)c1.[I-]` [Compound No. 2, 2-amino-4-(3,5-diacetylphenyl)amino-1,6-dimethylpyrimidinium iodide]: the inhibition at 0.1 µM in experiment [1] (Human immunodeficiency virus 1, Monocyte, 264 h, day-11, 100 nM Compound No. 2 alone, read-out: reduction in RT activity) was around 60%; in experiment [4], above 90%. Moreover, the RT activity in experiment [1] (day-7) is recorded as 0.37 ± 0.07 cpmx10^-3; in experiment [1] (day-11), 0.72 ± 0.30 cpmx10^-3. Also, in experiment [2], the “inhibition of reverse transcriptase” value is reported as “does not inhibit reverse transcriptase”. For the same compound, the “reduction in viral output” value in experiment [3] (1 and 10 μM, lower MOI (1 ng p24/10^6 cells), FIG. 3B) is around 2 fold. The “anti-viral effect on activated PBLs / replicating cells” value in experiment [3] (actively dividing cell populations, FIG. 3) was “much less expressed in these actively dividing cell populations; also recorded: No anti-viral effect was detected”. Moreover, in experiment [3] (up to 10 μM, higher MOI (10 ng p24/10^6 cells), FIG. 3A), the “effect on viral production” value was “only a marginal effect on viral production”. Further, the activity at 0.1 µM in experiment [4] (relative to drug free control, read-out: Translocation Index) was below 10%.
